target: skeletal myofibrils (myosin ATPase activity); test: Skeletal Myofibril ATPase Assay; format: biochemical; settings: PK-LDH coupled, absorbance at 340 nm
Summary of the method: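 Skeletal myofibril ATPase measured by PK-LDH-coupled NADH depletion at 340 nm, read every 1.5–2 min for 1 h; pCa buffer with PIPES/CaCl2/EGTA, pH 7.0. Rate taken as max–min absorbance, normalised to 1% DMSO vehicle (100%) and no change (0%); IC50 from four-parameter fit, bottom ≥0.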

`O=c1ccc(-c2ccc(OC(F)F)cc2)nn1Cc1nc(C2CC2)co1` [Compound 214, 2-((4-cyclopropyloxazol-2-yl)methyl)-6-(4-(difluoromethoxy)phenyl)-pyridazin-3(2H)-one] and `O=c1ccc(-c2ccc(OC(F)F)cc2)nn1Cc1nc(-c2ccccc2)co1` [Compound 237, 6-(4-(difluoromethoxy)phenyl)-2-((4-phenyloxazol-2-yl)methyl)pyridazin-3(2H)-one] fall in the same range of IC50: 10 to 100 µM for the first, 10 to 100 µM for the second.

First: Cc1ccc(-c2noc(Cn3nc(-c4ccc(Cl)cc4)ccc3=O)n2)cc1 [Compound 313, 6-(4-chlorophenyl)-2-((3-(p-tolyl)-1,2,4-oxadiazol-5-yl)methyl)pyridazin-3(2H)-one]
Second: O=c1ccc(-c2cnc(OCC(F)(F)F)nc2)nn1Cc1nc(-c2ccc(F)cc2)no1 [Compound 88, 2-((3-(4-fluorophenyl)-1,2,4-oxadiazol-5-yl)methyl)-6-(2-(2,2,2-trifluoroethoxy)pyrimidin-5-yl)pyridazine-3(2H)-one]
The IC50 of the first is higher: 10 to 100 µM for the first, < 10 µM for the second.

`O=c1ccc(-c2ccc(OC(F)F)cc2)nn1Cc1nc2ccccc2o1` [Compound 203, 2-(benzo[d]oxazol-2-ylmethyl)-6-(4-(difluoromethoxy)phenyl) pyridazine-3(2H)-one] and `O=c1ccc(-c2ccc(OC(F)F)cc2)nn1Cc1nnc(-c2ccccc2)s1` [Compound 201, 6-(4-(difluoromethoxy)phenyl)-2-((5-phenyl-1,3,4-thiadiazol-2-yl)methyl)pyridazin-3(2H)-one] cannot be ordered by IC50: < 10 µM for the first, < 10 µM for the second.

Compared with `O=c1ccc(-c2ccc(OC(F)F)nc2)nn1Cc1nnc(-c2ccccc2)s1` [Compound 22], `O=c1ccc(-c2ccc(OC(F)F)nc2)nn1Cc1ocnc1-c1ccccc1` [Compound 24, 6-(6-(difluoromethoxy)pyridin-3-yl)-2-((4-phenyloxazol-5-yl)methyl)pyridazin-3(2H)-one] is higher in IC50: < 10 µM for the first, > 100 µM for the second. The first is the more potent here.

Compared with `O=c1ccc(-c2cnc(OCC(F)(F)F)nc2)nn1Cc1cccnc1O` [Compound 47, 2-((2-hydroxypyridin-3-yl)methyl)-6-(2-(2,2,2-trifluoroethoxy)pyrimidin-5-yl)pyridazin-3(2H)-one], `O=c1ccc(-c2cnc(OCC(F)(F)F)nc2)nn1Cc1ccnc(O)c1` [Compound 42, 2-((2-hydroxypyridin-4-yl)methyl)-6-(2-(2,2,2-trifluoroethoxy)pyrimidin-5-yl)pyridazin-3(2H)-one] is lower in IC50: > 100 µM for the first, 10 to 100 µM for the second. The second is the more potent here.

`O=c1ccc(-c2ccc(OC(F)F)nc2)nn1Cc1cncc(C(F)(F)F)c1` [Compound 76, 6-(6-(difluoromethoxy)pyridin-3-yl)-2-((5-(trifluoromethyl)pyridin-3-yl)methyl)pyridazin-3(2H)-one] and `O=c1ccc(-c2ccc(OC(F)F)nc2)nn1Cc1cncc(F)c1` [Compound 9] cannot be ordered by IC50: < 10 µM for the first, < 10 µM for the second.

`Cc1c(-c2ccccc2)noc1Cn1nc(-c2cnc(OCC(F)(F)F)nc2)ccc1=O` [Compound 39, 2-((4-methyl-3-phenylisoxazol-5-yl)methyl)-6-(2-(2,2,2-trifluoroethoxy)pyrimidin-5-yl)pyridazin-3(2H)-one] and `O=c1ccc(-c2cnc(OCC(F)(F)F)nc2)nn1Cc1cc(-c2ccccc2)no1` [Compound 27, 2-((3-phenylisoxazol-5-yl)methyl)-6-(2-(2,2,2-trifluoroethoxy)pyrimidin-5-yl)pyridazin-3(2H)-one] cannot be ordered by IC50: < 10 µM for the first, < 10 µM for the second.

First: Cc1nc(Cn2nc(-c3cnc(OCC(F)(F)F)nc3)ccc2=O)co1 [Compound 83, 2-((2-methyloxazol-4-yl)methyl)-6-(2-(2,2,2-trifluoroethoxy)pyrimidin-5-yl)pyridazin-3(2H)-one]
Second: Cc1cnoc1Cn1nc(-c2cnc(OCC(F)(F)F)nc2)ccc1=O [Compound 34, 2-((4-methylisoxazol-5-yl)methyl)-6-(2-(2,2,2-trifluoroethoxy)pyrimidin-5-yl)pyridazin-3(2H)-one]
The IC50 of the first is higher: 10 to 100 µM for the first, < 10 µM for the second.

`O=c1ccc(-c2ccc(OCC(F)(F)F)cc2)nn1Cc1cncc(F)c1` [Compound 238, 2-((5-fluoropyridin-3-yl)methyl)-6-(4-(2,2,2-trifluoroethoxy)phenyl) pyridazin-3(2H)-one] and `O=c1ccc(-c2cnc(OCCC(F)(F)F)nc2)nn1Cc1cncc(F)c1` [Compound 117, 2-((5-f1uoropyridin-3-yl)methyl)-6-(2-(3,3,3-trifluoropropoxy)pyrimidin-5-yl)pyridazine-3(2H)-one] cannot be ordered by IC50: < 10 µM for the first, < 10 µM for the second.

`O=c1ccc(-c2cnc(OCC(F)(F)F)nc2)nn1Cc1cc(C(F)F)no1` [Compound 26, 2-((3-(difluoromethyl)isoxazol-5-yl)methyl)-6-(2-(2,2,2-trifluoroethoxy)pyrimidin-5-yl)pyridazin-3(2H)-one] and `O=c1ccc(-c2cnc(OCC(F)(F)F)nc2)nn1Cc1cc(C2CC2)no1` [Compound 31, 2-((3-cyclopropylisoxazol-5-yl)methyl)-6-(2-(2,2,2-trifluoroethoxy)pyrimidin-5-yl)pyridazin-3(2H)-one] cannot be ordered by IC50: < 10 µM for the first, < 10 µM for the second.

`Cc1nnc(Cn2nc(-c3ccc(OC(F)F)cc3)ccc2=O)s1` [Compound 223, 6-(4-(difluoromethoxy)phenyl)-2-((5-methyl-1,3,4-thiadiazol-2-yl)methyl)pyridazin-3(2H)-one] and `CCc1noc(Cn2nc(-c3ccc(OC(F)F)cc3)ccc2=O)n1` [Compound 213, 6-(4-(difluoromethoxy)phenyl)-2-((3-ethyl-1,2,4-oxadiazol-5-yl)methyl)pyridazin-3(2H)-one] fall in the same range of IC50: 10 to 100 µM for the first, 10 to 100 µM for the second.

`O=c1ccc(-c2cnc(N3CCC[C@@H]3C(F)(F)F)nc2)nn1Cc1cncc(F)c1` [Compound 73, (R)-2-((5-fluoropyridin-3-yl)methyl)-6-(2-(2-(trifluoromethyl)pyrrolidin-1-yl)pyrimidin-5-yl)pyridazin-3(2H)-one] and `O=c1ccc(-c2cnc(NC34CC(C3)C4)nc2)nn1Cc1cncc(F)c1` [Compound 64, 6-(2-(bicyclo[1.1.1]pentan-1-ylamino)pyrimidin-5-yl)-2-((5-fluoropyridin-3-yl)methyl)pyridazine-3(2H)-one] cannot be ordered by IC50: < 10 µM for the first, < 10 µM for the second.

First: O=c1ccc(-c2cnc(OCC(F)(F)F)nc2)nn1Cc1cc(-c2ccccn2)no1 [Compound 30, 2-((3-(pyridin-2-yl)isoxazol-5-yl)methyl)-6-(2-(2,2,2-trifluoroethoxy)pyrimidin-5-yl)pyridazin-3(2H)-one]
Second: O=c1ccc(-c2cnc(OCC(F)(F)F)nc2)nn1Cc1nnc(-c2ccnc(O)c2)s1 [Compound 44, 2-((5-(2-hydroxypyridin-4-yl)-1,3,4-thiadiazol-2-yl)methyl)-6-(2-(2,2,2-trifluoroethoxy)pyrimidin-5-yl)pyridazin-3(2H)-one]
The IC50 of the first is lower: < 10 µM for the first, 10 to 100 µM for the second.

`CC(C)COc1ncc(-c2ccc(=O)n(Cc3cncc(F)c3)n2)cn1` [Compound 110, 2-((5-fluoropyridin-3-yl)methyl)-6-(2-isobutoxypyrimidin-5-yl)pyridazine-3(2H)-one] and `CC[C@H](C)Oc1ncc(-c2ccc(=O)n(Cc3cncc(F)c3)n2)cn1` [Compound 120, (S)-6-(2-(sec-butoxy)pyrimidin-5-yl)-2((5-fluropyridin-3-yl)methyl)pyridazine-3(2H)-one] cannot be ordered by IC50: < 10 µM for the first, < 10 µM for the second.

`N#Cc1cncc(Cn2nc(-c3cnc(OCC(F)(F)F)nc3)ccc2=O)c1` [Compound 51, 5-((6-oxo-3-(2-(2,2,2-trifluoroethoxy)pyrimidin-5-yl)pyridazin-1(6H)-yl)methyl)nicotinonitrile] and `O=c1ccc(-c2cnc(OCC(F)(F)F)nc2)nn1Cc1cnccc1F` [Compound 79, 2-((4-fluoropyridin-3-yl)methyl)-6-(2-(2,2,2-trifluoroethoxy)pyrimidin-5-yl)pyridazin-3(2H)-one] cannot be ordered by IC50: < 10 µM for the first, < 10 µM for the second.

`CCc1ncc(Cn2nc(-c3cnc(OCC(C)C)nc3)ccc2=O)s1` [Compound 124, 2-((2-ethylthiazol-5-yl)methyl)-6-(2-isobutoxypyrimidin-5-yl)pyridazine-3(2H)-one] and `CCc1ncc(Cn2nc(-c3cnc(OCC(F)(F)F)nc3)ccc2=O)s1` [Compound 99, 2-((2-ethylthiazol-5-yl)methyl)-6-(2-(2,2,2-trifluoroethoxy)pyrimidin-5-yl)pyridazine-3(2H)-one] cannot be ordered by IC50: < 10 µM for the first, < 10 µM for the second.

`CSc1ncc(-c2ccc(=O)n(Cc3cc(C)no3)n2)cn1` [Compound 65, 2-((3-methylisoxazol-5-yl)methyl)-6-(2-(methylthio)pyrimidin-5-yl)pyridazine-3(2H)-one] and `CC[C@@H](C)Oc1ncc(-c2ccc(=O)n(Cc3cncc(F)c3)n2)cn1` [Compound 127] cannot be ordered by IC50: < 10 µM for the first, < 10 µM for the second.

Going from `Cc1cc(O)c(Cn2nc(-c3cnc(OCC(F)(F)F)nc3)ccc2=O)cn1` [Compound 86, 2-((4-hydroxy-6-methylpyridin-3-yl)methyl)-6-(2-(2,2,2-trifluoroethoxy)pyrimidin-5-yl)pyridazin-3(2H)-one] to `O=c1ccc(-c2cnc(OCC3(F)COC3)nc2)nn1Cc1cncc(F)c1` [Compound 66, 6-(2-((3-fluorooxetan-3-yl)methoxy)pyrimidin-5-yl)-2((5-fluoropyridin-3-yl)methyl)pyridazine-3(2H)-one], the IC50 falls from > 100 µM to < 10 µM. The second is the more potent here.

First: O=c1ccc(-c2ccc(OC(F)F)cc2)nn1Cc1ncccn1 [Compound 232, 6-(4-(difluoromethoxy)phenyl)-2-(pyrimidin-2-ylmethyl)pyridazin-3(2H)-one]
Second: O=c1ccc(-c2ccc(OC(F)F)cc2)nn1Cc1cncnc1 [Compound 220, 6-(4-(difluoromethoxy)phenyl)-2-(pyrimidin-5-ylmethyl)pyridazin-3(2H)-one]
The IC50 of the first is higher: > 100 µM for the first, 10 to 100 µM for the second.

`O=c1ccc(-c2cnc(OCC3(F)COC3)nc2)nn1Cc1nc(-c2ccccc2)no1` [Compound 91] and `O=c1ccc(-c2ccc(NC34CC(C3)C4)nc2)nn1Cc1cncc(F)c1` [Compound 72, 6-(6-(bicyclo[1.1.1]pentan-1-ylamino)pyridin-3-yl)-2-((5-fluoropyridin-3-yl)methyl)pyridazin-3(2H)-one] cannot be ordered by IC50: < 10 µM for the first, < 10 µM for the second.
